{"source": "patent EP1200406B1", "about": "“CYCLIC AMIDES AND IMIDES HAVING SELECTIVE ANTAGONIST ACTIVITY AT ALPHA-1D ADRENERGIC RECEPTOR” (RECORDATI INDUSTRIA CHIMICA E FARMACEUTICA S.p.a., priority 1999, dated 2001)", "key": {"[1]": {"biological_target": "T1, human 5-HT1A-serotoninergic receptor (Homo sapiens, UniProt P08908)", "T1 construct": "expressed in transfected cells; host or cells: HeLa cells (membranes)", "T1 sequence (P08908 1-422)": "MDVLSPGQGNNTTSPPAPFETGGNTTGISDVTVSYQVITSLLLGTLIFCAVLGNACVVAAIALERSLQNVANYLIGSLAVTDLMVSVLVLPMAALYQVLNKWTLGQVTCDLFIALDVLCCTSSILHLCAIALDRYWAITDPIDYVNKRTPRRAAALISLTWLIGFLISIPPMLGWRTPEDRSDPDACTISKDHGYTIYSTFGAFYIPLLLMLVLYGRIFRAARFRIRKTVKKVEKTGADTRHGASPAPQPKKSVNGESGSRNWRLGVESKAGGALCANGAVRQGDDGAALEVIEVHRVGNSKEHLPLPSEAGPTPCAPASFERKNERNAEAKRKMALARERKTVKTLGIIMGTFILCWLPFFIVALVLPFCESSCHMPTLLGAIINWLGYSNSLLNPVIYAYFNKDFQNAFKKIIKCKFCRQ", "experiment": "Radioligand binding ([3H]8-OH-DPAT) on membranes of HeLa cells expressing cloned 5-HT1A receptor", "conditions": "read-out: Affinity (Ki) 5-HT1A", "description": "(§1) The determination of affinity for cloned subtypes of human α1 adrenergic receptors was performed in membranes from CHO cells (chinese hamster ovary cells) transfected by electroporation with DNA expressing the genes encoding each α1-adrenoceptor subtype, namely α1a, α1b and α1d.. Cloning and stable expression of the human α1-adrenoceptor gene were performed as previously described (Testa et al., Pharmacol. Comm. 6, 79-86 (1995)). CHO cell membranes were incubated in […] Tris pH 7.4 with 0.2 nM [^3H]prazosin, in a final volume of 1.02 ml for 30 minutes at 25°C, in the absence or presence of competing drugs (1 pM-10 µM). Non-specific binding was determined in the presence of 10 µM phentolamine. Incubation was stopped by addition of ice-cold Tris buffer and rapid filtration through 0.2% polyethyleneimine pretreated Schleicher & Schuell GF52 filters. Genomic clone G-21 coding for the human 5-HT1A-serotoninergic receptor was stably transfected in a human cell line (HeLa) (Fargin et al., J. Biol. Chem. 284, 14848-14852 (1989)). The HeLa cells were grown as monolayers in Dulbecco's modified Eagle's medium (DMEM), supplemented with 10% foetal calf serum and gentamicin (100 µg/ml), 5% CO2, at 37°C. The cells were detached from the growth flask at 95% confluence by a cell scraper and were lysed in ice-cold 5 mM Tris and 5-mM EDTA buffer (pH 7.4). The homogenates were centrifuged at 40000 x g x 20 minutes and the membranes were re-suspended in a small volume of ice-cold 5 mM Tris and 5-mM EDTA buffer (pH 7.4) and immediately frozen and stored at -70°C until use. On the experiment day, the cell membranes were re-suspended in a buffer containing 50 mM Tris (pH 7.4), 2.5 mM MgCl2, 10 µM pargyline (Fargin et al., Nature 335, 358-360 (1988)). […] The incubation was stopped by addition of ice-cold Tris buffer and rapid filtration through 0.2%-polyethyleneimine-pretreated Schleicher & Schuell filters. The inhibition of specific binding of the radioligands by the drugs was analysed to estimate the IC50 value by using the non-linear curve-fitting programme Allfit (De Lean et al., Am. J. Physiol. 235, E97-E102 (1978)). The IC50 value was converted to an affinity constant (Ki) by the equation of Cheng & Prusoff (Biochem. Pharmacol. 22, 3099-3108 (1973)). Data were expressed as mean of Ki."}, "[2]": {"biological_target": "T2, human recombinant α1a adrenoceptor (Homo sapiens, UniProt P35348)", "T2 construct": "expressed in transfected cells; host or cells: CHO cells (membranes)", "T2 sequence (P35348 1-466)": "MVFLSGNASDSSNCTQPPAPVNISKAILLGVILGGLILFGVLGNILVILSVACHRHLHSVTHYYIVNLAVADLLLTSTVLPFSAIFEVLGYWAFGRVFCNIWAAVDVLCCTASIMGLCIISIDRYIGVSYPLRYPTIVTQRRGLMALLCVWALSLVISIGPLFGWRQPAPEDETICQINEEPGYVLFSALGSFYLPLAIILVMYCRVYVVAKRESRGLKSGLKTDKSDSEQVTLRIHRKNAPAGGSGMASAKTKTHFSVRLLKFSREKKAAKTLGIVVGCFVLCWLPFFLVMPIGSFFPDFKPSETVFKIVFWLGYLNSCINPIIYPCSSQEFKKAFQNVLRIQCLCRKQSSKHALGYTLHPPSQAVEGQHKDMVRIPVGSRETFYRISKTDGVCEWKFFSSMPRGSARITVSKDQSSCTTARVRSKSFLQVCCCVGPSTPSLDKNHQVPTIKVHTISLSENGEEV", "experiment": "Radioligand binding ([3H]prazosin) on membranes of CHO cells expressing cloned α1a adrenoceptor", "conditions": "read-out: Affinity (Ki) α1a", "description": "as §1, with “Genomic clone G-21 coding for the human 5-HT1A-serotoninergic receptor was stably transfected in a human cell line (HeLa) (Fargin et al., J. Biol. Chem. 284, 14848-14852 (1989)).” left out"}, "[3]": {"conditions": "human cloned receptor, HeLa cell membranes, 1.2 nM [3H]8-OH-DPAT"}, "[4]": {"conditions": "human cloned receptor, CHO cell membranes, 0.2 nM [3H]prazosin"}}, "note": "pKi: −log10 of the molar value. Like-named read-outs stand apart in the source and are kept apart here.", "data": [{"smiles": "O=C1CC2(CCCC2)CC(=O)N1CCN1CCN(c2cc(Cl)ccc2Cl)CC1", "note": "[Example 1, 8-{2-[4-(2,5-Dichlorophenyl)-1-piperazinyl]-ethyl}-8-azaspiro[4.5]decane-7,9-dione]", "values": [{"measurement": "pKi", "setting": "[1]; [3]", "result": 7.44}]}, {"smiles": "O=C1CC2(CCC2)CC(=O)N1CCN1CCN(c2cc(Cl)ccc2Cl)CC1", "note": "[Example 15, 7-{2-[4-(2,5-Dichlorophenyl)-1-piperazinyl]-ethyl}-7-azaspiro[3.5]nonane-6,8-dione]", "values": [{"measurement": "pKi", "setting": "[2]; [4]", "result": 6.92}, {"measurement": "pKi", "setting": "[1]", "result": "< 6.00"}]}, {"smiles": "O=C1CC2(CCCC2)CC(=O)N1CCN1CCC(c2cc(Cl)ccc2Cl)CC1", "note": "[Example 17, 8-{2-[4-(2,5-Dichlorophenyl)-1-piperidinyl]-ethyl}-8-azaspiro[4.5]decane-7,9-dione]", "values": [{"measurement": "pKi", "setting": "[2]; [4]", "result": 6.93}, {"measurement": "pKi", "setting": "[1]; [3]", "result": 6.61}]}, {"smiles": "Cc1ccc(F)c(N2CCN(CCN3C(=O)CC4(CCCC4)CC3=O)CC2)c1", "note": "[Example 4, 8-{2-[4-(2-Fluoro-5-methylphenyl)-1-piperazinyl]-ethyl}-8-azaspiro[4.5]decane-7,9-dione]", "values": [{"measurement": "pKi", "setting": "[2]; [4]", "result": "< 6.00"}, {"measurement": "pKi", "setting": "[1]; [3]", "result": 7.28}]}, {"smiles": "O=C1CC2(CCCCC2)CC(=O)N1CCN1CCN(c2cc(Cl)ccc2Cl)CC1", "note": "[Example 11, 3-{2-[4-(2,5-Dichlorophenyl)-1-piperazinyl]-ethyl}-3-azaspiro[5.5]undecane-2,4-dione]", "values": [{"measurement": "pKi", "setting": "[2]; [4]", "result": 6.48}, {"measurement": "pKi", "setting": "[1]; [3]", "result": 6.89}]}, {"smiles": "Cc1ccc(C)c(N2CCN(CCN3C(=O)CC4(CCCC4)CC3=O)CC2)c1", "note": "[Example 5, 8-{2-[4-(2,5-Dimethylphenyl)-1-piperazinyl]-ethyl}-8-azaspiro[4.5]decane-7,9-dione]", "values": [{"measurement": "pKi", "setting": "[2]; [4]", "result": 6.92}, {"measurement": "pKi", "setting": "[1]; [3]", "result": 6.56}]}, {"smiles": "O=C1CC2(CCCC2)CC(=O)N1CCN1CCN(c2cc(Br)ccc2Br)CC1", "note": "[Example 7, 8-{2-[4-(2,5-Dibromophenyl)-1-piperazinyl]-ethyl}-8-azaspiro[4.5]decane-7,9-dione]", "values": [{"measurement": "pKi", "setting": "[2]; [4]", "result": 6.94}, {"measurement": "pKi", "setting": "[1]; [3]", "result": 7.21}]}, {"smiles": "O=C1CC2(CCCC2)CC(=O)N1CCN1CCN(c2cc(C(F)(F)F)ccc2F)CC1", "note": "[Example 6, 8-{2-[4-(2-Fluoro-5-trifluoromethylphenyl)-1-piperazinyl]-ethyl}-8-azaspiro[4.5]decane-7,9-dione]", "values": [{"measurement": "pKi", "setting": "[2]; [4]", "result": "< 6.00"}, {"measurement": "pKi", "setting": "[1]; [3]", "result": 6.80}]}, {"smiles": "CCC1(C)CC(=O)N(CCN2CCN(c3cc(Cl)ccc3Cl)CC2)C(=O)C1", "note": "[Example 13, 1-{2-[4-(2,5-Dichlorophenyl)-1-piperazinyl]-ethyl}-4-ethyl-4-methylpiperidinyl-2,6-dione]", "values": [{"measurement": "pKi", "setting": "[2]; [4]", "result": 7.22}, {"measurement": "pKi", "setting": "[1]; [3]", "result": 6.98}]}, {"smiles": "O=C1CC2(CCCC2)CC(=O)N1CCN1CCN(c2cc(F)ccc2Cl)CC1", "note": "[Example 9, 8-{2-[4-(2-Chloro-5-fluorophenyl)-1-piperazinyl]-ethyl}-8-azaspiro[4.5]decane-7,9-dione]", "values": [{"measurement": "pKi", "setting": "[2]; [4]", "result": 6.97}, {"measurement": "pKi", "setting": "[1]; [3]", "result": 7.92}]}, {"smiles": "O=C1CC2(CCCC2)CC(=O)N1CCN1CCN(c2cc(I)ccc2Cl)CC1", "note": "[Example 10, 8-{2-[4-(2-Chloro-5-iodophenyl)-1-piperazinyl]-ethyl}-8-azaspiro[4.5]decane-7,9-dione]", "values": [{"measurement": "pKi", "setting": "[2]; [4]", "result": 6.32}, {"measurement": "pKi", "setting": "[1]; [3]", "result": 6.09}]}, {"smiles": "O=C1CC2(CCCC2)C(=O)N1CCN1CCN(c2cc(Cl)ccc2Cl)CC1", "note": "[Example 14, 2-{2-[4-(2,5-Dichlorophenyl)-1-piperazinyl]-ethyl}-2-azaspiro[4.4]nonane-1,3-dione]", "values": [{"measurement": "pKi", "setting": "[2]; [4]", "result": 7.17}, {"measurement": "pKi", "setting": "[1]", "result": "< 6.00"}]}, {"smiles": "O=C1CCCC(=O)N1CCN1CCN(c2cc(Cl)ccc2Cl)CC1", "note": "[Example 2, 1-{2-[4-(2,5-Dichlorophenyl)-1-piperazinyl]-ethyl}-piperidinyl-2,6-dione]", "values": [{"measurement": "pKi", "setting": "[2]; [4]", "result": 7.11}, {"measurement": "pKi", "setting": "[1]; [3]", "result": 6.59}]}, {"smiles": "CN(CCN1C(=O)CC2(CCCC2)CC1=O)CCN(C)c1cc(Cl)ccc1Cl", "note": "[Example 18, N-(2,5-Dichlorophenyl)-N'-{2-(7,9-dioxo-8-azaspiro[4.5]decane-8-yl)-ethyl}-N,N'-dimethyl-1,2-diaminoethane]", "values": [{"measurement": "pKi", "setting": "[2]; [4]", "result": 6.10}, {"measurement": "pKi", "setting": "[1]; [3]", "result": 6.36}]}, {"smiles": "O=C1CC2(CCCC2)CCN1CCN1CCN(c2cc(F)c(F)cc2F)CC1", "note": "[Example 24, 8-{2-[4-(2,4,5-Trifluorophenyl)-1-piperazinyl]-ethyl}-8-azaspiro[4.5]decane-7-one]", "values": [{"measurement": "pKi", "setting": "[2]; [4]", "result": 6.15}, {"measurement": "pKi", "setting": "[1]", "result": 6.67}]}, {"smiles": "N#Cc1ccc(Cl)cc1N1CCN(CCN2C(=O)CC3(CCCC3)CC2=O)CC1", "note": "[Example 8, 8-{2-[4-(5-Chloro-2-cyanophenyl)-1-piperazinyl]-ethyl}-8-azaspiro[4.5]decane-7,9-dione]", "values": [{"measurement": "pKi", "setting": "[2]; [4]", "result": 6.30}, {"measurement": "pKi", "setting": "[1]; [3]", "result": 7.53}]}, {"smiles": "O=C1CC2(C=CN1CCN1CCN(c3cc(Cl)ccc3Cl)CC1)CCCC2", "note": "[Example 20, 8-{2-[4-(2,5-Dichlorophenyl)-1-piperazinyl]-ethyl}-8-azaspiro[4.5]dec-9,10-en-7-one]", "values": [{"measurement": "pKi", "setting": "[2]", "result": 7.57}, {"measurement": "pKi", "setting": "[1]; [3]", "result": 7.04}]}, {"smiles": "CC(CN1CCN(c2cc(Cl)ccc2Cl)CC1)N1C(=O)CC2(CCCC2)CC1=O", "note": "(centres unmarked) [Example 16, 8-{2-[4-(2,5-Dichlorophenyl)-1-piperazinyl]-1-methylethyl}-8-azaspiro[4.5]decane-7,9-dione]", "values": [{"measurement": "pKi", "setting": "[2]; [4]", "result": 6.73}, {"measurement": "pKi", "setting": "[1]; [3]", "result": 6.68}]}]}
